Results reported in PubChem BioAssay (NCI).
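Each compound was tested at five concentrations against cells in 96-well plates for 48 hours. Here, GI50 denotes the concentration required for 50% inhibition of growth. At the TGI there is no net growth.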

What was measured:
Assay in all cases: NCI tumour cell line growth inhibition, 48 h
COLO 205 colon = system: COLO 205 colon
LOX IMVI melanoma = system: LOX IMVI melanoma
PC-3 prostate = system: PC-3 prostate
HOP-92 NSCLC = system: HOP-92 NSCLC
HS 578T breast = system: HS 578T breast
MDA-MB-231 breast = system: MDA-MB-231 breast
NCI-H522 lung = system: NCI-H522 lung
CCRF-CEM leukemia = system: CCRF-CEM leukemia
MOLT-4 leukemia = system: MOLT-4 leukemia
SN12C renal = system: SN12C renal
MCF7 breast = system: MCF7 breast
SF-539 CNS = system: SF-539 CNS
SK-MEL-5 melanoma = system: SK-MEL-5 melanoma
SK-MEL-2 melanoma = system: SK-MEL-2 melanoma
NCI-H23 lung = system: NCI-H23 lung
A549 NSCLC = system: A549 NSCLC
IGROV1 ovarian = system: IGROV1 ovarian
UACC-257 melanoma = system: UACC-257 melanoma
EKVX NSCLC = system: EKVX NSCLC
NCI-H460 lung = system: NCI-H460 lung
OVCAR-8 ovarian = system: OVCAR-8 ovarian
SNB-75 CNS = system: SNB-75 CNS
T-47D breast = system: T-47D breast
RPMI-8226 leukemia = system: RPMI-8226 leukemia
MDA-MB-435 = system: MDA-MB-435
U251 CNS = system: U251 CNS
SF-295 CNS = system: SF-295 CNS
SK-OV-3 ovarian = system: SK-OV-3 ovarian
BT-549 breast = system: BT-549 breast
RXF 393 renal = system: RXF 393 renal
UO-31 renal = system: UO-31 renal
CAKI-1 renal = system: CAKI-1 renal
SF-268 CNS = system: SF-268 CNS
K-562 leukemia = system: K-562 leukemia
HT29 colon = system: HT29 colon
OVCAR-4 ovarian = system: OVCAR-4 ovarian
SK-MEL-28 melanoma = system: SK-MEL-28 melanoma
SW-620 colon = system: SW-620 colon
UACC-62 melanoma = system: UACC-62 melanoma
HL-60(TB) leukemia = system: HL-60(TB) leukemia
HCC-2998 colon = system: HCC-2998 colon
ACHN renal = system: ACHN renal
SNB-19 CNS = system: SNB-19 CNS
786-0 renal = system: 786-0 renal
NCI/ADR-RES ovarian = system: NCI/ADR-RES ovarian
DU-145 prostate = system: DU-145 prostate
A498 renal = system: A498 renal
OVCAR-3 ovarian = system: OVCAR-3 ovarian
HCT-116 colon = system: HCT-116 colon
M14 melanoma = system: M14 melanoma
NCI-H226 lung = system: NCI-H226 lung
HOP-62 NSCLC = system: HOP-62 NSCLC
SR leukemia = system: SR leukemia
OVCAR-5 ovarian = system: OVCAR-5 ovarian
MALME-3M melanoma = system: MALME-3M melanoma
HCT-15 colon = system: HCT-15 colon
TK-10 renal = system: TK-10 renal
KM12 colon = system: KM12 colon

Structure (SMILES): CC(CN(C)C)Oc1ccccc1NC1=C(Cl)C(=O)C(Nc2ccccc2OC(C)CN(C)C)=C(Cl)C1=O (stereo unspecified)
- GI50 (COLO 205 colon): 174 nM
- TGI (COLO 205 colon): 359 nM
- GI50 (LOX IMVI melanoma): 183 nM
- TGI (LOX IMVI melanoma): 377 nM
- GI50 (PC-3 prostate): 1330 nM
- TGI (PC-3 prostate): 2860 nM
- GI50 (HOP-92 NSCLC): 268 nM
- TGI (HOP-92 NSCLC): 807 nM
- GI50 (HS 578T breast): 1800 nM
- TGI (HS 578T breast): 4530 nM
- GI50 (MDA-MB-231 breast): 509 nM
- TGI (MDA-MB-231 breast): 1200 nM
- GI50 (NCI-H522 lung): 157 nM
- TGI (NCI-H522 lung): 337 nM
- GI50 (CCRF-CEM leukemia): 265 nM
- TGI (CCRF-CEM leukemia): 882 nM
- GI50 (MOLT-4 leukemia): 195 nM
- TGI (MOLT-4 leukemia): 510 nM
- GI50 (SN12C renal): 347 nM
- TGI (SN12C renal): 853 nM
- GI50 (MCF7 breast): 169 nM
- TGI (MCF7 breast): 410 nM
- GI50 (SF-539 CNS): 1440 nM
- TGI (SF-539 CNS): 2760 nM
- GI50 (SK-MEL-5 melanoma): 1560 nM
- TGI (SK-MEL-5 melanoma): 2940 nM
- GI50 (SK-MEL-2 melanoma): 1340 nM
- TGI (SK-MEL-2 melanoma): 2890 nM
- GI50 (NCI-H23 lung): 273 nM
- TGI (NCI-H23 lung): 915 nM
- GI50 (A549 NSCLC): 1700 nM
- TGI (A549 NSCLC): 3240 nM
- GI50 (IGROV1 ovarian): 580 nM
- TGI (IGROV1 ovarian): 1880 nM
- GI50 (UACC-257 melanoma): 1160 nM
- TGI (UACC-257 melanoma): 2530 nM
- GI50 (EKVX NSCLC): 685 nM
- TGI (EKVX NSCLC): 1810 nM
- GI50 (NCI-H460 lung): 1300 nM
- TGI (NCI-H460 lung): 2900 nM
- GI50 (OVCAR-8 ovarian): 337 nM
- TGI (OVCAR-8 ovarian): 1710 nM
- GI50 (SNB-75 CNS): 1440 nM
- TGI (SNB-75 CNS): 3010 nM
- GI50 (T-47D breast): 175 nM
- TGI (T-47D breast): 455 nM
- GI50 (RPMI-8226 leukemia): 372 nM
- TGI (RPMI-8226 leukemia): 1950 nM
- GI50 (MDA-MB-435): 753 nM
- TGI (MDA-MB-435): 2150 nM
- GI50 (U251 CNS): 1330 nM
- TGI (U251 CNS): 2730 nM
- GI50 (SF-295 CNS): 1830 nM
- TGI (SF-295 CNS): 3460 nM
- GI50 (SK-OV-3 ovarian): 2290 nM
- TGI (SK-OV-3 ovarian): 5430 nM
- GI50 (BT-549 breast): 1620 nM
- TGI (BT-549 breast): 2980 nM
- GI50 (RXF 393 renal): 663 nM
- TGI (RXF 393 renal): 2030 nM
- GI50 (UO-31 renal): 437 nM
- TGI (UO-31 renal): 853 nM
- GI50 (CAKI-1 renal): 1340 nM
- TGI (CAKI-1 renal): 2720 nM
- GI50 (SF-268 CNS): 1490 nM
- TGI (SF-268 CNS): 3060 nM
- GI50 (K-562 leukemia): 210 nM
- TGI (K-562 leukemia): 507 nM
- GI50 (HT29 colon): 179 nM
- TGI (HT29 colon): 423 nM
- GI50 (OVCAR-4 ovarian): 146 nM
- TGI (OVCAR-4 ovarian): 279 nM
- GI50 (SK-MEL-28 melanoma): 1500 nM
- TGI (SK-MEL-28 melanoma): 2870 nM
- GI50 (SW-620 colon): 175 nM
- TGI (SW-620 colon): 357 nM
- GI50 (UACC-62 melanoma): 1550 nM
- TGI (UACC-62 melanoma): 3050 nM
- GI50 (HL-60(TB) leukemia): 272 nM
- TGI (HL-60(TB) leukemia): 902 nM
- GI50 (HCC-2998 colon): 1290 nM
- TGI (HCC-2998 colon): 2910 nM
- GI50 (ACHN renal): 174 nM
- TGI (ACHN renal): 312 nM
- GI50 (SNB-19 CNS): 1710 nM
- TGI (SNB-19 CNS): 3280 nM
- GI50 (786-0 renal): 708 nM
- TGI (786-0 renal): 2010 nM
- GI50 (NCI/ADR-RES ovarian): 1970 nM
- TGI (NCI/ADR-RES ovarian): 8530 nM
- GI50 (DU-145 prostate): 255 nM
- TGI (DU-145 prostate): 686 nM
- GI50 (A498 renal): 1510 nM
- TGI (A498 renal): 2860 nM
- GI50 (OVCAR-3 ovarian): 167 nM
- TGI (OVCAR-3 ovarian): 310 nM
- GI50 (HCT-116 colon): 170 nM
- TGI (HCT-116 colon): 344 nM
- GI50 (M14 melanoma): 1380 nM
- TGI (M14 melanoma): 2830 nM
- GI50 (NCI-H226 lung): 1410 nM
- TGI (NCI-H226 lung): 2910 nM
- GI50 (HOP-62 NSCLC): 1670 nM
- TGI (HOP-62 NSCLC): 3070 nM
- GI50 (SR leukemia): 265 nM
- TGI (SR leukemia): 1170 nM
- GI50 (OVCAR-5 ovarian): 935 nM
- TGI (OVCAR-5 ovarian): 2440 nM
- GI50 (MALME-3M melanoma): 605 nM
- TGI (MALME-3M melanoma): 1380 nM
- GI50 (HCT-15 colon): 176 nM
- TGI (HCT-15 colon): 375 nM
- GI50 (TK-10 renal): 479 nM
- TGI (TK-10 renal): 974 nM
- GI50 (KM12 colon): 1200 nM
- TGI (KM12 colon): 2570 nM
